Values belong to the compound of their own block, whether it stands above or below them.
Assays:
[1] = tested on: Human immunodeficiency virus type 1 reverse transcriptase (Human immunodeficiency virus 1), Q72547 [UNDEFINED MUTATION]; experiment: Ratio of K103N mutant IC50 to wild type Reverse Transcriptase IC50
[2] = tested on: Human immunodeficiency virus 1; experiment: Antiviral activity against HIV1 in presence of 50% NHS; assay type: functional; details: read-out: CIC95
[3] = target: Human immunodeficiency virus type 1 reverse transcriptase (Human immunodeficiency virus 1, UniProt Q72547); experiment: Inhibition of HIV1 wild type Reverse Transcriptase
[4] = tested on: Human immunodeficiency virus 1; experiment: Antiviral activity against HIV1 in presence of 10% FBS; assay type: functional; details: read-out: CIC95
[5] = Oral bioavailability in rat at 3 mg/kg, iv and po; assay type: ADME, organism-based; details: in vivo

Structure (SMILES): Cc1ccc(-n2nnnc2SCC(=O)Nc2ccccc2[N+](=O)[O-])c(Br)c1
Ratio [1]: 3 | IC95 [2]: 62 nM | IC50 [3]: 3 nM | IC95 [4]: 8 nM

Structure (SMILES): Cc1cc(C)c(-n2nnnc2SCC(=O)Nc2ccc(S(N)(=O)=O)cc2Cl)c(C)c1
Ratio [1]: 3 | IC95 [2]: 62 nM | IC50 [3]: 4 nM | IC95 [4]: 16 nM | bioavailability [5]: 33%

Structure (SMILES): Cc1cc(C)c(-n2nnnc2SCC(=O)Nc2ccc([N+](=O)[O-])cc2Cl)c(C)c1
Ratio [1]: 5 | IC95 [2]: 1250 nM | IC50 [3]: 22 nM | IC95 [4]: 78 nM

Structure (SMILES): Cc1cc(C)c(-n2nnnc2SCC(=O)Nc2ccc(C(N)=O)cc2Cl)c(C)c1
Ratio [1]: 2 | IC95 [2]: 16 nM | IC50 [3]: 3 nM | IC95 [4]: 8 nM

Structure (SMILES): NS(=O)(=O)c1ccc(NC(=O)CSc2nnnn2-c2cccc(Cl)c2Cl)c(Cl)c1
Ratio [1]: 1 | IC95 [2]: 250 nM | IC50 [3]: 9 nM | IC95 [4]: 62 nM

Structure (SMILES): O=C(CSc1nnnn1-c1cc(F)ccc1Cl)Nc1ccccc1[N+](=O)[O-]
Ratio [1]: 1 | IC95 [2]: 250 nM | IC50 [3]: 10 nM | IC95 [4]: 63 nM

Structure (SMILES): Cc1cc(C)c(-n2nnnc2SCC(=O)Nc2ccccc2Cl)c(C)c1
Ratio [1]: 3 | IC50 [3]: 5 nM

IC50 [3]: > 5000 nM
Structure (SMILES): Cc1cc(C)c(-n2nnnc2SCC(=O)Nc2c(Cl)cccc2Cl)c(C)c1
IC95 [2]: > 5000 nM | IC95 [4]: > 5000 nM

Structure (SMILES): O=C(CSc1nnnn1-c1ccc(Cl)c(Cl)c1)Nc1ccccc1[N+](=O)[O-]
Ratio [1]: 2 | IC95 [2]: > 5000 nM | IC50 [3]: 230 nM | IC95 [4]: > 5000 nM

IC50 [3]: 200 nM
Structure (SMILES): Cc1cc(C)c(-n2nnnc2SCC(=O)Nc2cccc([N+](=O)[O-])c2)c(C)c1
IC95 [4]: > 5000 nM

IC50 [3]: > 5000 nM
Structure (SMILES): Cc1cc(C)c(-n2nnnc2SCC(=O)Nc2ccc([N+](=O)[O-])cc2)c(C)c1
IC95 [2]: > 5000 nM | IC95 [4]: > 5000 nM

IC50 [3]: 1250 nM
Structure (SMILES): Cc1cc(C)c(-n2nnnc2SCC(=O)Nc2ccc(S(N)(=O)=O)cc2)c(C)c1
IC95 [2]: > 5000 nM | IC95 [4]: 1250 nM

Structure (SMILES): Cc1cc(C)c(-n2nnnc2SCC(=O)Nc2ccc(Cl)cc2[N+](=O)[O-])c(C)c1
Ratio [1]: 3 | IC95 [2]: 400 nM | IC50 [3]: 4 nM | IC95 [4]: 31 nM

Structure (SMILES): O=C(CSc1nnnn1-c1cc(Cl)ccc1Cl)Nc1ccccc1[N+](=O)[O-]
Ratio [1]: 1 | IC95 [2]: 200 nM | IC50 [3]: 4 nM | IC95 [4]: 31 nM

Structure (SMILES): Cc1cc(C)c(-n2nnnc2SCC(=O)Nc2ccc(S(N)(=O)=O)cc2C)c(C)c1
Ratio [1]: 1 | IC95 [2]: 580 nM | IC50 [3]: 54 nM | IC95 [4]: 50 nM | bioavailability [5]: 60%

Structure (SMILES): O=C(CSc1nnnn1-c1c(Cl)cccc1Cl)Nc1ccccc1[N+](=O)[O-]
Ratio [1]: 1 | IC95 [2]: 62 nM | IC50 [3]: 4 nM | IC95 [4]: 15 nM

Structure (SMILES): Cc1cccc(-n2nnnc2SCC(=O)Nc2ccccc2[N+](=O)[O-])c1C
Ratio [1]: 1 | IC95 [2]: 250 nM | IC50 [3]: 18 nM | IC95 [4]: 63 nM

Structure (SMILES): O=C(CSc1nnnn1-c1cccc(Cl)c1Cl)Nc1ccccc1[N+](=O)[O-]
Ratio [1]: 1 | IC95 [2]: 125 nM | IC50 [3]: 12 nM | IC95 [4]: 78 nM

Structure (SMILES): Cc1cc(C)c(-n2nnnc2SCC(=O)Nc2ccc([N+](=O)[O-])cc2C)c(C)c1
Ratio [1]: 3 | IC95 [2]: > 5000 nM | IC50 [3]: 165 nM | IC95 [4]: 1250 nM

Structure (SMILES): Cc1cc(C)c(-n2nnnc2SCC(=O)Nc2ccccc2[N+](=O)[O-])c(C)c1
Ratio [1]: 3 | IC95 [2]: 90 nM | IC50 [3]: 3 nM | IC95 [4]: 11 nM | bioavailability [5]: 0%

Structure (SMILES): Cc1c(Cl)cccc1-n1nnnc1SCC(=O)Nc1ccccc1[N+](=O)[O-]
Ratio [1]: 3 | IC95 [2]: 31 nM | IC50 [3]: 3 nM | IC95 [4]: 8 nM

Structure (SMILES): Cc1cc(C)c(-n2nnnc2SCC(=O)Nc2ccc(OCCCN(C)C)cc2Cl)c(C)c1
Ratio [1]: 5 | IC95 [2]: 62 nM | IC50 [3]: 13 nM | IC95 [4]: 62 nM

Structure (SMILES): Cc1cc(C)c(-n2nnnc2SCC(=O)Nc2ccc(C(=O)NCCCN(C)C)cc2Cl)c(C)c1
Ratio [1]: 2 | IC95 [2]: 16 nM | IC50 [3]: 5 nM | IC95 [4]: 8 nM

Structure (SMILES): Cc1cc(C)c(-n2nnnc2SCC(=O)Nc2ccc(C(N)=O)cc2C)c(C)c1
Ratio [1]: 1 | IC95 [2]: 62 nM | IC50 [3]: 55 nM | IC95 [4]: 31 nM

Structure (SMILES): Cc1ccc(Cl)cc1-n1nnnc1SCC(=O)Nc1ccccc1[N+](=O)[O-]
Ratio [1]: 1 | IC95 [2]: 1250 nM | IC50 [3]: 23 nM | IC95 [4]: 78 nM

Structure (SMILES): NS(=O)(=O)c1ccc(NC(=O)CSc2nnnn2-c2cc(Cl)ccc2Cl)c(Cl)c1
Ratio [1]: 1 | IC95 [2]: 125 nM | IC50 [3]: 3 nM | IC95 [4]: 16 nM | bioavailability [5]: 33%

Structure (SMILES): Cc1cc(C)c(-n2nnnc2SCC(=O)Nc2ccccc2I)c(C)c1
Ratio [1]: 3 | IC95 [2]: 1250 nM | IC50 [3]: 31 nM | IC95 [4]: 312 nM

Structure (SMILES): Cc1cc(C)c(-n2nnnc2SCC(=O)Nc2ccccc2Br)c(C)c1
Ratio [1]: 5 | IC95 [2]: 810 nM | IC50 [3]: 7 nM | IC95 [4]: 100 nM

Reference: ChEMBL document CHEMBL1147711, “Tetrazole thioacetanilides: potent non-nucleoside inhibitors of WT HIV reverse transcriptase and its K103N mutant” (Bioorg Med Chem Lett, 2006)
